The subject of this assay is BV-2. Put plainly: Antiinflammatory activity in mouse BV2 cells assessed as inhibition of LPS-induced nitric oxide production after 24 hrs by griess assay. The note with it: BV-2, 24 h. The assay is classed as functional, cell-based. For orientation: Nitrite, measured by Griess reagent, commonly stands in for NO production.

One may read the IC50 as the point on the concentration scale where inhibition reaches its midpoint.

On to `C=C(C)C(O)Cc1c(OC)cc(OC)c2ccc(=O)oc12` (stereo unspecified), for which the IC50 is 15.5 µM.

As for `OC/C=C/c1ccc(O)c(/C=C/[C@@]23CCC(CO)=C[C@H]2c2cc(/C=C/CO)ccc2O[C@H]3O)c1`, the IC50 is over 50 µM.

Consider `C=C(C)/C=C/c1c(OC)ccc2ccc(=O)oc12`, for which the IC50 was 11.8 µM.

Turning to `C=C(C)[C@H](OC(=O)CC(C)C)[C@H](O)c1c(OC)ccc2ccc(=O)oc12`, the half-maximal inhibitory concentration (IC50) worked out at 21.3 µM.

Regarding `OC/C=C/c1ccc(O)c(/C=C/[C@]23CCC(CO)=C[C@H]2c2cc(/C=C/CO)ccc2O[C@H]3O)c1`, the IC50 amounted to 8.6 µM.

Regarding `COc1ccc2ccc(=O)oc2c1C(=O)C(OC(=O)CC(C)C)=C(C)C`, the IC50 worked out at 37.6 µM.

`C=C(C)[C@H](O)[C@H](OC(=O)CC(C)C)c1c(OC)ccc2ccc(=O)oc12`: the IC50 turned out to be 26.4 µM.

Turning to `C=C(C)[C@@H]1O[C@H](C(=C(C)C)c2c(OC)ccc3ccc(=O)oc23)O[C@@H]1c1c(OC)ccc2ccc(=O)oc12`, the IC50 turned out to be 37.6 µM.

With `C=C(C)[C@H](O)[C@H](C[C@@](C)(O)/C=C/c1c(OC)ccc2ccc(=O)oc12)c1c(OC)ccc2ccc(=O)oc12`, the IC50 came to 28.9 µM.

In the case of `COc1ccc2ccc(=O)oc2c1/C=C\C(C)=O`, the IC50 was 16.9 µM.

Take `O=c1c(O)c(-c2ccc(O)c(O)c2)oc2cc(O)cc(O)c12` [QUERCETIN]: the half-inhibitory concentration (IC50) was 7.2 µM.
